Some test systems named below: COLO 205; U-251; UACC-62; UO-31; MCF7; HCC 2998; PC-3; MDA-MB-435; SNB-75; OVCAR-4; SNB-19; NCI-H460; HCT-116; UACC-257; HOP-62; OVCAR-3; OVCAR-8; NCI-H226; SF-539.
Assay in all cases: NCI tumour cell line growth inhibition, 48 h

Each structure is given as a SMILES string.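 Exposure lasted 48 hours, with cells grown in 96-well plates and compounds tested at five concentrations. Here, GI50 denotes the concentration required for 50% inhibition of growth.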 Calls of active or inactive are those of the source. Cut-off read from the data, not from the text of the source: active = GI50 up to about 1.1 µM and inactive = higher.

Regarding `COc1cc(/C=C2\N=C(c3ccccc3)N(c3nc4ccc(Sc5ccccc5)cc4[nH]3)C2=O)cc(OC)c1OC`, the GI50 is 18.9 µM (inactive) in the test on COLO 205; 18.3 µM (inactive) in the test on U-251; 15.4 µM (inactive) with UACC-62; 34.4 µM (inactive) with UO-31; 17.8 µM (inactive) in the test with MCF7; 16.5 µM (inactive) with HCC 2998. The GI50 in the test with PC-3 is 26.9 µM (inactive); in the test with MDA-MB-435, 5.19 µM (inactive); with SNB-75 it was 17.4 µM (inactive); in the test on OVCAR-4 it was 41.1 µM (inactive); in the test with SNB-19, 33.6 µM (inactive); in the test with NCI-H460, 21.6 µM (inactive). Moreover, the GI50 is 20.7 µM (inactive) with HCT-116; 19.6 µM (inactive) with UACC-257; 31.5 µM (inactive) in the test on HOP-62; 22.6 µM (inactive) with OVCAR-3; 32.7 µM (inactive) in the test on OVCAR-8.

Take `CN1CCCCC(C#N)(c2ccccc2)CC1` (stereo not given): the GI50 with COLO 205, in the test with U-251, in the test with UO-31, in the test on MCF7, with HCC 2998 and with PC-3 was > 100 µM (inactive) throughout. The GI50 in the test with SNB-75, in the test with OVCAR-4, in the test with SNB-19, with NCI-H460, in the test with HCT-116 and in the test on UACC-257 was > 100 µM (inactive) each time. In addition, the GI50 in the test on HOP-62 and with OVCAR-8 was > 100 µM (inactive) in each case.

For `O=C1/C(=C\c2cccc(Oc3ccccc3)c2)SC(c2ccccc2)N1c1cccc(Cl)c1` (stereo not given), the GI50 in the test on COLO 205 was > 100 µM (inactive); in the test with U-251, > 100 µM (inactive); in the test on UACC-62 it was > 100 µM (inactive); in the test with UO-31, > 100 µM (inactive); with HCC 2998, > 100 µM (inactive); in the test on MDA-MB-435, 92.7 µM (inactive). In addition, the GI50 with OVCAR-4, in the test on SNB-19, with NCI-H460, with NCI-H226, in the test with HCT-116 and in the test on UACC-257 was > 100 µM (inactive) each time. For the same compound, the GI50 with HOP-62, in the test with OVCAR-3 and with OVCAR-8 was > 100 µM (inactive) throughout.

Turning to `CC12CC(c3ccccc3O1)C(C(=O)Nc1ccc(Cl)cc1Cl)C(=O)N2` (stereo not given), the GI50 with COLO 205 was 64.6 µM (inactive); in the test with U-251, 22.2 µM (inactive); in the test on UACC-62 it was > 100 µM (inactive); in the test on UO-31, 19.2 µM (inactive); with MCF7, > 100 µM (inactive); in the test with SF-539, 45.4 µM (inactive). The GI50 with HCC 2998 is 49.1 µM (inactive); with PC-3, 44 µM (inactive); with MDA-MB-435 it was 67.1 µM (inactive); with OVCAR-4 it was 19.6 µM (inactive); in the test with SNB-19, 36.7 µM (inactive); in the test with NCI-H460, 31.6 µM (inactive). Also, the GI50 in the test on HCT-116 is 34.3 µM (inactive); with UACC-257, > 100 µM (inactive); with HOP-62, 20.1 µM (inactive); in the test on OVCAR-3, 38 µM (inactive); in the test with OVCAR-8 it was 14.9 µM (inactive).

Regarding `CCc1cccc(C)c1NC(=O)CC1C(=O)Nc2ccccc2[S+]1[O-]` (stereo not given), the GI50 in the test on COLO 205 was 39.2 µM (inactive); in the test on U-251, 18.7 µM (inactive); in the test on UO-31 it was 98.2 µM (inactive); in the test with SF-539 it was 29.2 µM (inactive); in the test on HCC 2998, 56.4 µM (inactive); in the test with SNB-75, 33.5 µM (inactive). The GI50 with OVCAR-4 is 28.3 µM (inactive); in the test with SNB-19, 48.4 µM (inactive); in the test on NCI-H460 it was 33.6 µM (inactive); in the test on NCI-H226, > 100 µM (inactive); with HCT-116, 35.8 µM (inactive); in the test on UACC-257, 31.8 µM (inactive). Besides, the GI50 in the test with HOP-62 is 71.4 µM (inactive); in the test with OVCAR-3, 57.3 µM (inactive); in the test on OVCAR-8, 46 µM (inactive).

For `CN(C)CCN1C(=O)N(CCN(C)C)c2c3cc(O)ccc3nc3c([N+](=O)[O-])ccc1c23`, the GI50 in the test with COLO 205 was 10.4 µM (inactive); in the test on U-251, 9.93 µM (inactive); in the test on UACC-62 it was 15.9 µM (inactive); with UO-31, 16.7 µM (inactive); with HCC 2998, 8.73 µM (inactive); in the test with PC-3, 8.63 µM (inactive). Besides, the GI50 in the test with MDA-MB-435 was 14.8 µM (inactive); with SNB-75 it was 19.1 µM (inactive); in the test with OVCAR-4 it was 9.66 µM (inactive); with SNB-19, 6.05 µM (inactive); in the test with NCI-H460, 3.63 µM (inactive); in the test on NCI-H226 it was 12.6 µM (inactive). The GI50 was 5.58 µM (inactive) in the test with HCT-116, 15.3 µM (inactive) with UACC-257 and 5.55 µM (inactive) in the test on OVCAR-8.

In the case of `COc1ccccc1C1(c2c(OC(C)C)c(=O)c2=O)SCCCS1`, the GI50 in the test with COLO 205, in the test on U-251, in the test on UACC-62, with UO-31, with MCF7 and in the test with SF-539 was > 100 µM (inactive) in each case. The GI50 was > 100 µM (inactive) with PC-3; > 100 µM (inactive) in the test on MDA-MB-435; 90.4 µM (inactive) with SNB-75; > 100 µM (inactive) in the test with OVCAR-4; > 100 µM (inactive) in the test on SNB-19; > 100 µM (inactive) with NCI-H460. In addition, the GI50 with NCI-H226, in the test on HCT-116, with UACC-257, with HOP-62, with OVCAR-3 and with OVCAR-8 was > 100 µM (inactive) in each case.

Take `O=C(NCCC1CN(S(=O)(=O)C(F)(F)F)c2ccccc21)OCc1ccccc1` (stereo not given): the GI50 in the test with COLO 205 is > 100 µM (inactive); with U-251 it was 83.9 µM (inactive); in the test with UACC-62, > 100 µM (inactive); in the test on UO-31, > 100 µM (inactive); with MCF7, > 100 µM (inactive); in the test with HCC 2998, > 100 µM (inactive). Besides, the GI50 with PC-3, with MDA-MB-435, in the test with OVCAR-4, in the test on SNB-19, with NCI-H460 and in the test on HCT-116 was > 100 µM (inactive) in each case. Further, the GI50 in the test on UACC-257, with HOP-62, with OVCAR-3 and with OVCAR-8 was > 100 µM (inactive) throughout.

`N[C@@H]1CCN(c2c(F)cc3c(=O)c(C(=O)O)cn4c3c2Oc2cc3c(ccc5ccccc53)cc2-4)C1`: the GI50 in the test on COLO 205 is 4.45 µM (inactive); in the test with U-251, 0.906 µM (active); in the test on UACC-62, 7.6 µM (inactive); with UO-31, 5.2 µM (inactive); with MCF7, 3.13 µM (inactive); in the test with SF-539 it was 3.37 µM (inactive). The GI50 in the test with PC-3 was 2.34 µM (inactive); in the test on MDA-MB-435 it was 3.24 µM (inactive); in the test with SNB-75, 2.89 µM (inactive); in the test on OVCAR-4 it was 4.36 µM (inactive); with SNB-19, 3.3 µM (inactive); in the test with NCI-H460, 0.735 µM (active). For the same compound, the GI50 in the test on NCI-H226 is 6.58 µM (inactive); with HCT-116, 1.64 µM (inactive); with UACC-257 it was 0.78 µM (active); with HOP-62, 4.82 µM (inactive); in the test with OVCAR-3, 5.73 µM (inactive); in the test on OVCAR-8 it was 1.7 µM (inactive).

The values above are taken from ChEMBL document CHEMBL1201862, “PubChem BioAssay data set” (2004).
